Where two headings read alike, the source gives them in different places.
Columns and labels:
[1] = test system: Escherichia coli; test: Antibacterial disc growth inhibition test, E. coli; format: cell-based
Protocol: Activity was evaluated by the standard […] with human pathogenic Staphylococcus aureus and Escherichia coli at 100 μg/disc for a disc of 6 mm diameter (Table 3). […] Bromotyrosine metabolites have already been reported as antibacterials.

[2] = test system: Staphylococcus aureus; test: Antibacterial disc growth inhibition test, S. aureus; format: cell-based
[3] = target: Pfnek-1 (Plasmodium falciparum, UniProt Q8I5D5); test: Pfnek-1 protein kinase assay (33P incorporation in β-casein); format: biochemical
Protocol: A GST-Pfnek-1 fusion protein was purified from the Escherichia coli BL21 strain carrying a Pfnek-1 expression plasmid harbouring an ampicillin resistance cassette (bacteria kindly provided by D. Dorin, INSERM 511) as described by Dorin et al.. Pfnek-1 kinase activity was determined by measuring the ^33P incorporation in ß-caseine using γ[^33P]-ATP.
Briefly, test compounds were dissolved in DMSO and diluted in 20 mM Tris, pH 7.5 20 mM MgCl2, 10 mM NaF and 10 mM ATP. β-casein (3 mg/mL) and γ[^33P]-ATP were added prior to the addition of Pfnek-1 to start the kinase reaction. Approximately 5 μCi of γ[^33P]-ATP was used per reaction. After incubation at 30 °C for 30 min, each solution was blotted on a phosphocellulose filter paper (P81 Whatman-cation exchange chromatography paper). After four washes with 1% H3PO4 at, the remaining radioactivity was measured using a liquid scintillation analyzer Packard 1600TR. The IC50 is defined as the concentration of compound which inhibits 50% of enzyme activity compared to the control (reaction in the absence of inhibitor).

[4] = test system: chloroquine-resistant Plasmodium falciparum strain FcB1; test: Activity against erythrocytic stages of cultured P. falciparum (LDH assay); format: cell-based; settings: for IC50: read-out: FCB1 of P. falciparum IC50; for Antiplasmodial activity against FcB1 P. falciparum (in words): in vitro
Protocol: The antiplasmodial activity was studied in vitro against the chloroquine-resistant Plasmodium falciparum strain FcB1 by a micromethod using the lactate deshydrogenase (LDH) assay (Makler and Hinrichs). Parasites were cultivated using the method of Trager and Jensen. Erythrocytes infected with P. falciparum (ring stage, 1% of parasitaemia) were re-suspended in complete culture medium at a haematocrit of 1.5%. The suspension was distributed in 96-well microtitre plates (200 μL per well). Drug testing was performed in triplicate. For each assay, a parasite culture was incubated with the drug for 48 h in 5% CO2 at 95% relative humidity, and frozen until the biochemical assay could be run. After defrosting, a 20 μL sub-sample of the contents of each well was mixed with 100 μL of a substrate solution containing 20 mg/mL of lithium L-lactate (Sigma), 5.5 mg/mL of TRIS (Sigma), and 3.7 mg/mL of 3-acetylpyridine adenine dinucleotide (APAD; Sigma), in the well of another microtitre plate. After incubation for 30 min, 25 μL of a mixture of NBT (1.6 mg/mL; Sigma) and PES (0.1 mg/mL; Sigma) were added to each well. After a further 35 min of incubation, the reaction was stopped by the addition of 25% acetic acid (25 μL per well). Accumulation of the reduced form of APAD was measured at λ = 650 nm, using a spectrophotometer (microplate reader, Metertech). IC50 values were determined graphically in a concentration versus percent inhibition curve.

[5] = test system: chloroquine-resistant Plasmodium falciparum strain FcB1; set-up: method as in PMID 15124089; settings: isolated from leaves of Glossocalyx brevipes; cited from earlier work
[6] = 100 μg/disc, disc of 6 mm diameter
[7] = GST-Pfnek-1, β-casein substrate, 30 °C, 30 min
[8] = Plasmodium falciparum, FcB1 strain, 48 h incubation, LDH readout
[9] = FcB1 strain, 48 h incubation, LDH readout

Chain of Pfnek-1 (Q8I5D5 entry or part of it): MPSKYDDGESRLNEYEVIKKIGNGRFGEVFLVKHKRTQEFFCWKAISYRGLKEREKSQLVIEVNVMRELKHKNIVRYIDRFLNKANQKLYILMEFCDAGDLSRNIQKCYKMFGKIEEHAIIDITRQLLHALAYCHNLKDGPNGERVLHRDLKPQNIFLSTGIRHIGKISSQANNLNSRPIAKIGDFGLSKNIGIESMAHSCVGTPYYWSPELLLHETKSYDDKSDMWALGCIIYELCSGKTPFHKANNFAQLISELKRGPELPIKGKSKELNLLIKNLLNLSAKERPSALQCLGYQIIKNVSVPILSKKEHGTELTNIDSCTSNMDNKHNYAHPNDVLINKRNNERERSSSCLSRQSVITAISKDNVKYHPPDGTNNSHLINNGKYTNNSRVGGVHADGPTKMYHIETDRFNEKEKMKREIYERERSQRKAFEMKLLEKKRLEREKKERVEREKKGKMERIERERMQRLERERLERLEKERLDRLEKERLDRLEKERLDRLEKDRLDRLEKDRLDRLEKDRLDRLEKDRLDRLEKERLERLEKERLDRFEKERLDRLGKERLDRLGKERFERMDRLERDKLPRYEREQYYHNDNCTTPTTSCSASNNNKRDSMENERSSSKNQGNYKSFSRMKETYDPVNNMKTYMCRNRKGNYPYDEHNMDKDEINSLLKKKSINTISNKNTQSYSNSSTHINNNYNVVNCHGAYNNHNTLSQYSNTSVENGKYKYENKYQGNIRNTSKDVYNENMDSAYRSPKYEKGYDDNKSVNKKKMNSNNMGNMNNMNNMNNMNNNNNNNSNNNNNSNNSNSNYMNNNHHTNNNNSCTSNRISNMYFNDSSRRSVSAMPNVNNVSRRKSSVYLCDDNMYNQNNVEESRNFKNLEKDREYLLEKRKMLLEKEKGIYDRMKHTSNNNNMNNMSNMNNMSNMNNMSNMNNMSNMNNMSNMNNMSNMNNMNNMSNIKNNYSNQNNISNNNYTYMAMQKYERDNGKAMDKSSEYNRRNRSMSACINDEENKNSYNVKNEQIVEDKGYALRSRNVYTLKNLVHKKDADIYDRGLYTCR

Row | Molecule | Pfnek-1 inhibitory activity (in words) [3] | IC50 [3, 7] [µM] | IC50 [4, 8] [µM] | also measured
1 | COC1=C(Br)[C@H](O)[C@@]2(C=C1Br)CC(C(=O)NCCCOc1c(Br)cc(CCNC(=O)C3=NO[C@]4(C=C(Br)C(OC)=C(Br)[C@@H]4O)C3)cc1Br)=NO2 | inactive | > 50 |  | Antibacterial activity against E. coli (in words) ([1]; 100 μg/disc): strong antibacterial activities; Growth inhibition diameter, E. coli [1, 6]: 16 mm; Antibacterial activity against S. aureus (in words) ([2]; 100 μg/disc): strong antibacterial activities; Growth inhibition diameter, S. aureus [2, 6]: 14 mm; IC50 ([4]; Plasmodium falciparum, FCB1, 48 h): > 100 µM
2 | CC(C)=CCCC(C)=CCC1(CC(=O)O)CC(O)C=CC1=O (stereo not drawn) [2-(1′β-geranyl-5′β-hydroxy-2′-oxocyclohex-3′-enyl)acetic acid] |  |  |  | Activity against P. falciparum (in words) [5]: modest activities
3 | COC1=C(Br)[C@H](O)[C@@]2(C=C1Br)CC(C(=O)NCCCOc1c(Br)cc(C(O)CNC(=O)C3=NO[C@]4(C=C(Br)C(OC)=C(Br)[C@@H]4O)C3)cc1Br)=NO2 (stereo partly shown) [Compound 2, 11-deoxyfistularin-3] | inactive | > 50 | > 100 | Growth inhibition diameter, E. coli [1, 6]: 0 mm; Growth inhibition diameter, S. aureus [2, 6]: 0 mm
4 | COC(=O)Cc1c(O)cc(Br)c(O)c1Br [Compound 4a, Methyl (2,4-dibromo-3,6-dihydroxyphenyl)acetate] | most active | ~1.8 | 12 | Antibacterial activity against E. coli (in words) ([1]; 100 μg/disc): inactive; Growth inhibition diameter, E. coli [1, 6]: 0 mm; Antibacterial activity against S. aureus (in words) ([2]; 100 μg/disc): inactive; Growth inhibition diameter, S. aureus [2, 6]: 0 mm; Pfnek-1 activity of 4a relative to 4b [3]: five times more active; Antiplasmodial activity against FcB1 P. falciparum (in words) [4]: moderately active
5 | COC(=O)Cc1cc(O)c(Br)cc1O [Compound 4b, Methyl (4-bromo-3,6-dihydroxyphenyl)acetate] | moderately active | 10 | 26 | 
6 | O=C1Cc2cc(O)ccc2O1 [Compound 5, 5-Hydroxy-3H-benzofuran-2-one] |  |  | 29 | IC50 [3]: > 50 µM
7 | O=C1Cc2c(cc(Br)c(O)c2Br)O1 [Compound 6a, 4,6-Dibromo-5-hydroxy-3H-benzofuran-2-one] | inactivity | > 50 | 35 | 
8 | O=C1Cc2cc(O)c(Br)cc2O1 [Compound 6b, 6-bromo-5-hydroxy-3H-benzofuran-2-one] | inactivity | > 50 | 17 | 
9 | COC(=O)Cc1cc(O)ccc1O [Compound 8, Methyl (2,5-dihydroxyphenyl)acetate] | inactive | > 50 | 36 | 
10 | COC(=O)Cc1cc(Br)c(O)c(Br)c1O [Compound 12, Methyl (3,5-dibromo-2,4-dihydroxyphenyl)acetate] | inactive | > 50 | > 100 | Antiplasmodial activity against FcB1 P. falciparum (in words) [4]: inactive
11 | O=C(N[C@H](CO)[C@H](O)c1ccc([N+](=O)[O-])cc1)C(Cl)Cl [chloramphenicol, reference compound] |  |  |  | Growth inhibition diameter, E. coli ([1]; 30 μg/disc): 17 mm
12 | COC(=O)CC1(CC=C(C)CCC=C(C)C)CC(O)C=CC1=O (stereo not drawn) [methyl 2-(1′β-geranyl-5′β-hydroxy-2′-oxocyclohex-3-enyl)acetate] |  |  |  | Activity against P. falciparum (in words) [5]: modest activities
13 | Methyl (3,6-dibenzoyl-2,4-dibromophenyl)acetate [Compound 13a] | inactivity | > 50 |  | IC50 [4, 9]: 22.5 µM
14 | Methyl (3,6-dibenzoyl-4-bromophenyl)acetate [Compound 13b] | inactivity | > 50 |  | IC50 [4, 9]: 13 µM
15 | gentamycin [reference compound] |  |  |  | Growth inhibition diameter, S. aureus ([2]; 10 μg/disc): 16 mm
